The results in this text go back to patent publication US20090312250A1 (POSTECH ACADEMY-INDUSTRY FOUNDATION, priority 2006, published 2009).

Assay [1] deals with MIN6 cells. As to the kind of experiment: Insulin secretion assay in MIN6 cells. In kind it is cell-based, mouse. Particulars: for effect on EGF-induced insulin secretion: pre-treatment, then 15 nM EGF for 1 min, butanols 0.4%, 10 min. The procedure: Cell Culture The mouse insulin-producing cells MIN6m9 provided by Dr. Susumu Seino (Division of Cellular and Molecular Medicine, Kobe University Graduate School of Medicine, Kobe, Japan) were used between passages 19 and 25 and cultured in DMEM containing 25 mM glucose, 10 mM HEPES, 10% (v/v) fetal calf serum, 50 IU/ml penicillin, and 50 μg/ml streptomycin at 37° C. in a humidified CO2-controlled (5%) incubator. MIN6 cells were transfected using LipofectAMINE, as described previously (Kim et al., J Immunol 163:5462-5470, 1999) Transfection efficiency is about 30-40% by using LipofectAMINE.
(§1) Insulin Secretion Assay: Batches of 10-15 isolated islets or 1×10^6 cells/well grown in 12- or 24-well plates were washed twice with KRB supplemented with 0.2% bovine serum albumin (BSA), and then incubated for 60 min at 37° C. in the KRB solution. We used same number of islets in a same set of experiment. At the end of incubation, the solutions were replaced with fresh KRB containing test reagents and incubated for the designated time. The incubation medium was sampled and centrifuged to remove cells, and the supernatant was assayed for insulin with a radioimmunoassay (RIA) kit (Linco, St. Louis, Mo.).
The MIN6 cells were plated onto 24-well plates and grown for 24 h. The cells were washed twice with KRB supplemented with 0.2% BSA, and then incubated for 60 min at 37° C. in the KRB solution.
The incubation medium was sampled and centrifuged to remove cells, and the supernatant was assayed for insulin levels. The data shown are the mean±S.D. from two independent assays by duplicate. *, P<0.05 compared with not treated (NT) cells.
The incubation medium was sampled and centrifuged to remove cells, and the supernatant was assayed for insulin levels. The data shown are the mean±S.D. from two independent assays by duplicate. *, P<0.05 compared with not treated cells.
The incubation medium was sampled and centrifuged to remove cells, and the supernatant was assayed for insulin levels. The data shown are the mean±S.D. from two independent assays by duplicate. * or **, P<0.05 compared with 2.7 or 11 mM glucose-treated cells.
The incubation medium was sampled and centrifuged to remove cells, and the supernatant was assayed for insulin levels.
In FIG. 3B, the MIN6 cells were plated onto 24-well plates and grown for 24 h. The cells were washed twice with KRB supplemented with 0.2% BSA, and then incubated for 60 min at 37° C. in the KRB solution. […] The incubation medium was sampled and centrifuged to remove cells, and the supernatant was assayed for insulin levels.

Another assay has as its system PLD. The assay can be described thus: PLD activity assay in MIN6 cells (PBt formation). In kind it is cell-based, mouse. Particulars: for effect on EGF-induced PLD activity: 30 min pre-incubation, then 15 nM EGF for 1 min. On the procedure:
PLD Activity Assay in Cells: Cells grown in 6-well plates were washed twice with KRB, and then labeled with [3H]myristic acid for 4 h at 37° C. in the KRB solution. PLD activity was assayed by measuring the formation of phosphatidylbutanol (PBt) (Kim J H et al., J Immunol 163:5462-5470, 1999). The intensities of PBt spots in the presence of 0.4% 1-butanol were measured, and PLD activity was obtained by subtracting the corresponding intensities of spots obtained in the absence of 1-butanol.
In FIG. 3A, the MIN6 cells were plated onto 6-well plates and grown for 24 h. The cells were washed twice with KRB, and then incubated for 4 h at 37° C. in the KRB solution in the presence of [^3H]myristic acid. […] The data shown are the mean±S.D. from two independent assays by duplicate.
In FIG. 4A, the MIN6 cells were plated onto 6-well plates and grown for 24 h. The cells were washed twice with KRB, and then incubated for 4 h at 37° C. in the KRB solution in the presence of [^3H]myristic acid. […] The intensities of PBt spots after 1 min accumulation in the presence of 1-butanol were measured, and results were obtained by subtracting the corresponding intensities of spots obtained in the absence of 1-butanol. The data shown are the mean±S.D. from two independent assays by duplicate. *, P<0.05 compared with EGF-treated cells.

For assay [2], the system named is MIN6 cells. The assay can be described thus: [Ca2+]i measurement in MIN6 cells (Fluo-3 AM, confocal microscope). In kind it is cell-based, mouse. The procedure:
Changes in intracellular Ca2+ levels were monitored using a Ca2+-sensitive dye under a confocal microscope. Cells were loaded with […] Fluo-3 AM for 40 min at room temperature. After washing with Krebs-Ringer bicarbonate (KRB; 129 mM NaCl, 5 mM NaHCO3, 4.8 mM KCl, 1.2 mM KH2PO4, 1.0 mM CaCl2, 1.2 mM MgSO4, 2.7 mM glucose, and 10 mM HEPES, pH 7.4) buffer, the cells were further incubated for 15 min in the absence of Fluo-3 AM to de-esterify the dye. To exclude the possible effects of dye loading, the present inventors normalized levels with saponin at the end of the experiments. To normalize, the present inventors measured the residual fluorescence (Fo) at the end of the experiment, and subtracted that from the fluorescence under experimental conditions (F). Excitation of Fluo-3 AM was performed at 488-nm by an argon laser, and the emission range was 515-nm. Images were captured on an inverted confocal microscope (Zeiss LSM 510 Meta, Oberkochen, Germany) with a 20× objective lens. The MIN6 cells were plated onto glass dishes or 24-well plates and grown for 24 h. The cells were washed twice with KRB supplemented with 0.2% BSA, and then incubated for 60 min at 37° C. in the KRB solution. In FIG. 2A, at the end of incubation, the solutions were replaced with fresh KRB containing Fluo-3 AM dissolved (1 mg/ml) in DMSO, and incubated for 1 h. […] Images were captured on an inverted confocal microscope with a 20× objective lens. To normalize, the present inventors measured the residual fluorescence (Fo) at the end of the experiment, and subtracted that from the fluorescence under experimental conditions (F). The data shown are the mean±S.E., n=7.

In the next assay the test system is ICR mice. As to the kind of experiment: Plasma insulin levels in ICR mice after intravenous injection. The following applies: glucose 0.5 g/kg. Format: in vivo, mouse. On the procedure: (§2) Measurement of Plasma Glucose and Plasma Insulin Levels: 7- to 8-week-old male ICR mice were purchased from Hyochang Science (Seoul, Korea). C57BLKSJ-db/db mice were purchased from SLC (Japan). […] Concentrations of plasma glucose were measured by the glucose oxidase method with a portable glucose meter (Gluco-Dr, Korea). Plasma was separated by centrifugation and the plasma insulin assay was performed using a RIA kit. Animal care was conducted in accordance with our institution's guidelines.

A further assay deals with mouse pancreatic islets. As to the kind of experiment: Insulin secretion assay in mouse pancreatic islets. Format: cell-based. Particulars: 1 min treatment. The procedure:
as §1
To prepare mouse pancreatic islets, pancreatic islets were isolated from 7- to 8-week-old male BALB/c mice (Hyochang Science, Korea), as described previously (Jonas J C, et al., Diabetes 47:1266-1273, 1998). Isolated islets were transferred onto a 12 well plate, with 10-15 islets per well. We used same number of islets in a same set of experiment. The islets were maintained for up to 2 days in RPMI1640 medium containing 5 mM glucose and 10% fetal calf serum, and supplemented with 100 µg/ml streptomycin and 100 U/ml penicillin.
The mouse pancreatic islets were plated onto 12-well plates and grown for 24 h. The islets were washed twice with KRB supplemented with 0.2% BSA, and then incubated for 60 min at 37° C. in the KRB solution. […]

Assay [3] deals with C57BLKSJ-db/db mice. As to the kind of experiment: Plasma glucose levels in obese db/db mice after intravenous injection. Particulars: EGF 50 μg/kg intravenous. Format: in vivo, mouse. On the procedure:
as §2

Assay [4] has as its system C57BLKSJ-db/db mice. The assay can be described thus: Plasma insulin levels in obese db/db mice after intravenous injection. In kind it is in vivo, mouse. Particulars: EGF 50 μg/kg intravenous, 10 min after injection. The procedure: as §2
Plasma insulin levels before and 10 min after injection were compared. […] All animals had free access to water. Animal care was conducted in accordance with our institution's guidelines.

A further assay has as its system RINm5F. The assay can be described thus: Insulin release in RINm5F cell line (data not shown). Format: cell-based.

Regarding `CCCCO` [1-butanol, reference compound], the “effect on EGF-induced insulin secretion” value in the assay with MIN6 cells [1] (MIN6 cells) is listed as “inhibited”.

As for `CC(=O)OCOC(=O)CN(CC(=O)OCOC(C)=O)c1ccccc1OCCOc1ccccc1N(CC(=O)OCOC(C)=O)CC(=O)OCOC(C)=O` [BAPTA/AM, 1,2-Bis(2-aminophenoxy)ethane-N,N,N′,N′-tetraacetic acid tetrakis (acet-oxymethyl ester)], the “effect on EGF-induced PLD activity” value in the assay with PLD is “inhibited most of the PLD activity”.

For `O=C(O)CN(CCOCCOCCN(CC(=O)O)CC(=O)O)CC(=O)O` [EGTA], in the assay on MIN6 cells [2] (30 min pre-incubation, then 15 nM EGF), the “effect on EGF-stimulated extracellular Ca2+ influx” value is given as “reduced”. Also, in the assay on PLD, the “effect on EGF-induced PLD activity” value was “inhibited most of the PLD activity”.

For `O=C[C@H](O)[C@@H](O)[C@H](O)[C@H](O)CO` [glucose, reference compound], the “time required for Ca2+ influx” value in the assay with MIN6 cells [2] (data not shown) was 3 to 4 min. Besides, in the assay with ICR mice, the plasma insulin levels result is “increased plasma insulin levels”.

With `CC(C)(C)O` [t-butanol, reference compound], the “effect on EGF-induced insulin secretion” value in the assay with MIN6 cells [1] (MIN6 cells) is reported as “but not by t-butanol treatment”.

On to Epidermal growth factor [EGF], for which the “insulin levels at basal concentration of glucose” value in the assay with MIN6 cells [1] (2.7 mM glucose, 15 or 30 nM EGF, 5 min) is “increased insulin levels”. In addition, the “glucose-induced insulin release at high glucose levels” value with MIN6 cells [1] (11 mM glucose, 15 or 30 nM EGF, 5 min) was “additively increased glucose-induced insulin release”. In addition, in the assay on MIN6 cells [1] (MIN6 cells, 15 nM EGF), the “effective time of EGF treatment for insulin secretion” value fell in the range of 1 to 2 min. The “kinetics of stimulation of insulin secretion” value with MIN6 cells [1] (MIN6 cells, 15 nM EGF compared with 11 mM glucose) was “kinetics more rapid than glucose”. For the same molecule, the “effective concentration of EGF for insulin secretion” value with MIN6 cells [1] (MIN6 cells, 1 min incubation) lay within 1.5 to 15 nM. Besides, the insulin secretion result in the assay on MIN6 cells [1] (MIN6 cells, 1 min treatment) was “significantly increased insulin secretion”; with mouse pancreatic islets (15 nM EGF), “rapidly increased insulin secretion”. For the same molecule, the “extracellular Ca2+ influx” value with MIN6 cells [2] (MIN6 cells, 15 nM EGF) is recorded as “stimulated extracellular Ca2+ influx”. The “time to PLD activation by EGF stimulation” value with PLD (15 nM EGF) is at most 2 min. The “specificity of the insulin secretion effect among growth factors” value with mouse pancreatic islets (data not shown) is on record as “specific among various growth factors”. Also, the plasma insulin levels entry with ICR mice and in the assay with C57BLKSJ-db/db mice [4] was “increased plasma insulin levels” throughout. The plasma glucose entry in the assay with C57BLKSJ-db/db mice [3] is “reduced plasma glucose”. Besides, the insulin release result in the assay with RINm5F is given as “could stimulate insulin release”.
